Measurements from patent publication US11834451B2 (priority 2021, dated 2023).
pEC50: −log10 of the molar value. Read-outs that look alike come from different tables or passages of the source.

Columns and labels:
RD cells = conditions: human
EV-D68 = test: microbe, parasite or virus in culture; format: cell-based, enterovirus D68 (EV-D68); conditions: Enterovirus D, EVD68, RD
EV-A71 = test: microbe, parasite or virus in culture; format: cell-based, enterovirus A71 (EV-A71); conditions: Enterovirus A, EVA71, RD
CVB3 Nancy virus = test: microbe, parasite or virus in culture; format: cell-based, coxsackievirus B3 (CVB3); conditions: Enterovirus B, CVB3, Vero, read-out: EC50, Anti-CVB3 in Vero cells
EV-D68 US/MO/14-18947 = test: microbe, parasite or virus in culture; format: cell-based, enterovirus D68 (EV-D68); conditions: for pEC50: Enterovirus D, EVD68, read-out: EC50, viral replication in neuronal cells (immunofluorescence, anti-VP1)
EV-D68, EV-A71, and CVB3 = test: organism not typed; format: cell-based; conditions: for pEC50: RD, read-out: EC50 values range against all EV-D68 and EV-A71 strains tested
Vero cells = conditions: African green monkey
in vitro = conditions: human
[1] = test system: EV-A71 Tainan/4643/1998 2C protein; format: binding
CVB3 Nancy 2C protein = CVB3 Nancy 2C protein (Coxsackievirus B3, UniProt P03313); format: binding
[2] = read-out: EC50, Anti-EV-D68 US/KY/14-18953 in RD cells
[3] = read-out: EC50, EV-D68 US/IL/14-18952 (Clade B2)
[4] = read-out: EC50, EV-D68 US/IL/14-18956 (Clade B2)
[5] = read-out: EC50, EV-D68 US/KY/14-18953 (Clade D)
[6] = read-out: EC50, EV-D68 US/MO/14-18947 (Clade B1)
[7] = read-out: EC50, EV-D68 US/MO/14-18949 (Clade B1)
[8] = read-out: EC50, Anti-EV-A71 Tainan/4643/1998 in RD cells
[9] = read-out: EC50, EV-A71 Tainan/4643/1998
[10] = read-out: EC50, EV-A71 USA/CT/2016-19519
[11] = CC50, in RD cells (Anti-EV-A71)
[12] = CC50 (EV-A71 USA/CT/2016-19519)
[13] = CC50 (EV-D68 US/IL/14-18952 row group)
[14] = CC50 (EV-D68 US/IL/14-18956 row group)
[15] = CC50 (EV-D68 US/KY/14-18953 row group)
[16] = CC50 (EV-D68 US/MO/14-18947 row group)
[17] = CC50 (EV-D68 US/MO/14-18949 row group)
[18] = CC50, in RD cells (Anti-EV-D68)

Sequence of CVB3 Nancy 2C protein (P03313 1101-1429 limits assumed): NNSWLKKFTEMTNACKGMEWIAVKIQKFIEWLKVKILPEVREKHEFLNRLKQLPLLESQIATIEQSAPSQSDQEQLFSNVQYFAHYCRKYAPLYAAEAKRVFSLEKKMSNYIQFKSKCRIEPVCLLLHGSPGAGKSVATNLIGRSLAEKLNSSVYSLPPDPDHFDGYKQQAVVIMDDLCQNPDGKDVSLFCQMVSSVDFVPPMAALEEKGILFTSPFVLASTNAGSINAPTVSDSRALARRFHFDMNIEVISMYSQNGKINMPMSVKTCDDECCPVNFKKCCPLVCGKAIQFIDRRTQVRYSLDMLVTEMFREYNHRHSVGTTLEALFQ

Structure (SMILES)	CC50 (RD cells) [nM]	pEC50 (EV-D68; [2])	pEC50 (EV-A71; [8])	pEC50 (CVB3 Nancy virus)	CC50 (Vero cells) [nM]	CC50 (in vitro; [11]) [nM]	also measured
CC(C)c1cc(C(=O)NCCO)c2cnn(C(C)C)c2n1 [Compound 10b, N-(2-hydroxyethyl)-1,6-bis(propan-2-yl)-1H-pyrazolo[3,4-b]pyridine-4-carboxamide]	> 100000						
CC(C)c1cc(C(=O)NCCN(C)C)c2cnn(C(C)C)c2n1 [Compound 10a, N-[2-(dimethylamino)ethyl]-1,6-bis(propan-2-yl)-1H-pyrazolo[3,4-b]pyridine-4-carboxamide]		7.00	7.00	7.40	> 300000		pEC50 (EV-D68; [3]): 7.05; pEC50 (EV-D68; [4]): 7.15; pEC50 (EV-D68; [5]): 7.00; pEC50 (EV-D68; [6]): 7.15; pEC50 (EV-D68; [7]): 7.10; pEC50 (EV-A71; read-out: EC50, EV-A71 A71 MP4): 6.70; pEC50 (EV-A71; [9]): 6.70; pEC50 (EV-A71; [10]): 7.22; pEC50 (EV-D68 US/MO/14-18947): 7.52; pEC50 (EV-D68, EV-A71, and CVB3): 6.52 to 7.22
CCn1ncc2c(C(=O)NCCN(C)C)cc(C3CC3)nc21 [Compound 16, 6-cyclopropyl-N-[2-(dimethylamino)ethyl]-1-ethyl-1H-pyrazolo[3,4-b]pyridine-4-carboxamide]		5.77	5.92	5.74	> 300000		EC50 values in words (summary across viruses) (EV-D68, EV-A71, and CVB3): single-digit micromolar range
CN(C)CCNC(=O)c1cc(C2CC2)nc2c1cnn2C [Compound 17, 6-cyclopropyl-N-[2-(dimethylamino)ethyl]-1-methyl-1H-pyrazolo[3,4-b]pyridine-4-carboxamide]	> 300000						
Cc1cc(C(=O)NCCN(C)C)c2cnn(C(C)C)c2n1 [Compound 12a, N-[2-(dimethylamino)ethyl]-6-methyl-1-(propan-2-yl)-1H-pyrazolo[3,4-b]pyridine-4-carboxamide]		6.40	7.00	6.70	> 300000		
Cc1cc(C(=O)NCCN)c2cnn(C(C)C)c2n1 [Compound 12e, N-(2-aminoethyl)-6-methyl-1-(propan-2-yl)-1H-pyrazolo[3,4-b]pyridine-4-carboxamide]	> 300000	5.33	6.15	5.42	> 300000	> 300000	
Cc1cc(C(=O)NC2CCN(C)C2)c2cnn(C(C)C)c2n1 (centres unmarked) [Compound 12b, 6-methyl-N-(1-methylpyrrolidin-3-yl)-1-(propan-2-yl)-1H-pyrazolo[3,4-b]pyridine-4-carboxamide]	> 300000	5.74	6.30	6.10	> 300000	> 300000	
Cc1cc(CCCOc2c(C)cc(-c3noc(C(F)(F)F)n3)cc2C)on1 [pleconaril, reference compound]							viral replication (VP1 fluorescence signal) (EV-D68 US/MO/14-18947; at 50 μM): completely abolished viral replication
CCn1ncc2c(C(=O)NCCNC)cc(C)nc21 [Compound 15b, 1-ethyl-6-methyl-N-[2-(methylamino)ethyl]-1H-pyrazolo[3,4-b]pyridine-4-carboxamide]	> 300000	4.23	< 4.70				
CCn1ncc2c(C(=O)NCCN(C)C)cc(C)nc21 [Compound 15a, N-[2-(dimethylamino)ethyl]-1-ethyl-6-methyl-1H-pyrazolo[3,4-b]pyridine-4-carboxamide]	> 300000	4.74					
CNCCNC(=O)c1cc(C(C)C)nc2c1cnn2C(C)C [Compound 10d, N-[2-(methylamino)ethyl]-1,6-bis(propan-2-yl)-1H-pyrazolo[3,4-b]pyridine-4-carboxamide]	> 100000	6.40	7.00	6.52		> 100000	
Cc1cc(C(=O)NC2CN(C)C2)c2cnn(C(C)C)c2n1 [Compound 12c, 6-methyl-N-(1-methylazetidin-3-yl)-1-(propan-2-yl)-1H-pyrazolo[3,4-b]pyridine-4-carboxamide]	> 300000	4.95	5.14	5.42	> 300000	> 300000	
CC(C)n1ncc2c(C(=O)NCCN(C)C)cc(C3CC3)nc21 [Compound 7d, 6-cyclopropyl-N-[2-(dimethylamino)ethyl]-1-(propan-2-yl)-1H-pyrazolo[3,4-b]pyridine-4-carboxamide]		7.00	6.10	6.70		200000	pEC50 (EV-D68; [3]): 7.40; pEC50 (EV-D68; [4]): 7.40; pEC50 (EV-D68; [5]): 7.00; pEC50 (EV-D68; [6]): 7.00; pEC50 (EV-D68; [7]): 7.00; pEC50 (EV-A71; read-out: EC50, EV-A71 A71 MP4): 7.00; pEC50 (EV-A71; [9]): 7.00; pEC50 (EV-A71; [10]): 7.22; binding to EV-A71 2C protein [1]: dose-response binding; binding to CVB3 2C protein (CVB3 Nancy 2C protein): dose-response binding; EC50 values in words (summary across viruses) (EV-D68, EV-A71, and CVB3): nanomolar range; pEC50 (EV-D68, EV-A71, and CVB3): 7.00 to 7.40; CC50 (in vitro; CC50 (EV-A71 Tainan/4643/1998)): 200000 nM; CC50 (in vitro; [12]): 200000 nM; CC50 (in vitro; [13]): 200000 nM; CC50 (in vitro; [14]): 200000 nM; CC50 (in vitro; [15]): 200000 nM; CC50 (in vitro; [16]): 200000 nM; CC50 (in vitro; [17]): 200000 nM; CC50 (in vitro; [18]): 200000 nM
CC(CN(C)C)NC(=O)c1cc(C2CC2)nc2c1cnn2C(C)C (centres unmarked) [Compound 7f, 6-cyclopropyl-N-[1-(dimethylamino)propan-2-yl]-1-(propan-2-yl)-1H-pyrazolo[3,4-b]pyridine-4-carboxamide]		7.00	7.00	7.40	> 300000	72600	
CNCCNC(=O)c1cc(C)nc2c1cnn2C(C)C [Compound 12d, 6-methyl-N-(methylamino)ethyl-1-(propan-2-yl)-1H-pyrazolo[3,4-b]pyridine-4-carboxamide]	> 300000	5.64	6.30	5.85	> 300000	> 300000	
Cc1cc(C(=O)NCCN(C)C)c2c(C)nn(C(C)(C)C)c2n1 [Compound 19, 1-tert-butyl-N-[2-(dimethylamino)ethyl]-3,6-dimethyl-1H-pyrazolo[3,4-b]pyridine-4-carboxamide]		6.00	5.13	5.68			pEC50 (EV-D68; [3]): 6.15; pEC50 (EV-D68; [4]): 6.40; pEC50 (EV-D68; [5]): 6.00; pEC50 (EV-D68; [6]): 6.40; pEC50 (EV-D68; [7]): 6.15; pEC50 (EV-A71; read-out: EC50, EV-A71 A71 MP4): 5.70; pEC50 (EV-A71; [9]): 5.13; pEC50 (EV-A71; [10]): 5.89; selectivity index across EV-D68 and EV-A71 strains tested (EV-D68, EV-A71, and CVB3): > 100; pEC50 (EV-D68, EV-A71, and CVB3): 5.13 to 6.40; CC50 (in vitro; CC50 (EV-A71 A71 MP4 row group)): 236000 nM; CC50 (in vitro; CC50 (EV-A71 Tainan/4643/1998)): 236000 nM; CC50 (in vitro; [12]): 236000 nM
CC(CN(C)C)NC(=O)c1cc(C(C)C)nc2c1cnn2C(C)C (centres unmarked) [Compound 10c, N-[1-(dimethylamino)propan-2-yl]-1,6-bis(propan-2-yl)-1H-pyrazolo[3,4-b]pyridine-4-carboxamide]	> 100000	7.00	6.00	7.00		70300	
CC(C)n1ncc2c(C(=O)NCCCN(C)C)cc(C3CC3)nc21 [Compound 7l, 6-cyclopropyl-N-[3-(dimethylamino)propyl]-1-(propan-2-yl)-1H-pyrazolo[3,4-b]pyridine-4-carboxamide]		5.92	5.74	6.40	> 200000		
CNCCNC(=O)c1cc(C2CC2)nc2c1cnn2C(C)C [Compound 7h, 6-cyclopropyl-N-[2-(methylamino)ethyl]-1-(propan-2-yl)-1H-pyrazolo[3,4-b]pyridine-4-carboxamide]		6.70	6.70	6.70	> 100000	236000	pEC50 (EV-D68; [3]): 6.70; pEC50 (EV-D68; [4]): 6.70; pEC50 (EV-D68; [5]): 6.70; pEC50 (EV-D68; [6]): 6.70; pEC50 (EV-D68; [7]): 6.70; pEC50 (EV-A71; read-out: EC50, EV-A71 A71 MP4): 6.52; pEC50 (EV-A71; [9]): 6.70; pEC50 (EV-A71; [10]): 7.00; pEC50 (EV-D68 US/MO/14-18947): 7.15; pEC50 (EV-D68, EV-A71, and CVB3): 6.52 to 7.22; CC50 (in vitro; CC50 (EV-A71 Tainan/4643/1998)): 236000 nM; CC50 (in vitro; [12]): 236000 nM; CC50 (in vitro; [13]): 236000 nM; CC50 (in vitro; [14]): 236000 nM; CC50 (in vitro; [15]): 236000 nM; CC50 (in vitro; [16]): 236000 nM; CC50 (in vitro; [17]): 236000 nM; CC50 (in vitro; [18]): 236000 nM
